{
  "source": "patent US11059718B2",
  "about": "“Methods and compositions using peptides and proteins with C-terminal elements” (Sanford Burnham Prebys Medical Discovery Institute, priority 2009, dated 2021)",
  "key": {"[1]": {"tested_on": "PPC1 prostate cancer cells", "experiment": "T7 phage binding and internalization on cultured PPC1 cells", "assay_type": "cell-based, human", "conditions": "for phage binding to and internalization into PPC1 cells: peptide displayed at C-terminus of T7 phage coat protein, binding at 4° C., internalization at 37° C. with pH 2.5 wash; for effect of trypsin treatment of phage on binding to PPC1 cells: peptide-displaying phage treated with trypsin before cell binding", "description": "(§1) To measure phage binding, 10^6 cells in binding buffer (DMEM containing 1% BSA) were incubated with 10^9 pfu/ml of T7 phage for 1 hour at 4° C. The cells were washed 4 times with the binding buffer, lysed in LB bacterial growth medium containing 1% NP-40, and titrated. Phage internalization assays used the same procedure, except that the cells were incubated with the phage at 37° C., and that an acidic buffer (500 mM sodium chloride, 0.1 M glycine, 1% BSA, pH 2.5) was used instead of binding buffer in the second wash.\nInhibitors of phage binding and internalization (heparin, chondroitin, glycocalyx removal enzymes, endocytosis inhibitors, free peptides, quantum dots and UV-inactivated phage) were added to the cells 20 minutes prior to incubation with phage. Endocytosis inhibitors used in this study were the following: nystatin (50 μg/ml), genistein (100 μg/ml), chlorpromazine (5 μg/ml), 5-(N-ethyl-N-isopropyl)amiloride (100 μM), wortmannin (10 μM).\nM21 melanoma cells were transiently transfected with these constructs using lipofectamine according to manufacturer's instructions (Invitrogen, Carlsbad, Calif.). Protease treatment of phage and qdots. 10^9 phage particles or 50 μl of peptide-coated qdots phage were treated with 50 iu of uPA, 25 μg of crystalline trypsin, 50 iu of thrombin, or 25 μg of collagenase type I (all Sigma, St. Louis, Mo.)."}, "[2]": {"experiment": "Stability of methylated iRGD peptides against proteolysis", "assay_type": "in vitro ADME", "conditions": "peptide bond protected by C-methylation or N-methylation"}, "[3]": {"tested_on": "orthotopic MIA PaCa-2 human pancreatic carcinoma xenografts", "experiment": "In vivo systemic permeability assay with Evans Blue, pancreatic tumor xenografts", "parameters": "species or system mice", "conditions": "100 nmol (or 100 μg) peptide 5 min after Evans Blue, tissues collected 30 min later", "description": "FIGS. 5A and 5B show tumor-specific entry of Evans Blue (albumin) into extravascular tumor tissue in iRGD-injected mice. iRGD is SEQ ID NO:3. iRGDD is SEQ ID NO:4. Mice bearing orthotopically transplanted pancreatic or breast cancer xenografts were injected with […] of Evans Blue, followed 5 min later by 100 μg of iRGD peptide in PBS, PBS alone, or a control peptide. Tumors and tissues were collected 30 min. later and examined for dye content. […] About 4 times more dye accumulated in the iRGD-treated tumors than in control tumors. The control peptides included non-CendR RGD peptides.\nFIGS. 9A-9D show a tumor-specific entry of Evans Blue into extravascular tumor tissue in iRGD-injected mice. iRGD is SEQ ID NO:3. iRGDD is SEQ ID NO:4. […] (FIGS. 9B to 9D) Quantification of Evans Blue in the pancreatic tumors and tissues. […]\nFive min later, the mice received an intravenous injection with 100 μl of PBS with or without iRGD or control peptides at various concentrations. […] For Evans Blue quantification, the dye was extracted from tissues using N,N-dimethylformamide for 24 hours at 37° C. and the dye content was quantified by measuring the absorbance at 600 nm with a spectrophotometer. […] Quantification of the positive area in immunohistochemically stained sections, and total amount of antibodies within the tissues are described elsewhere in this manuscript."}, "NRP-1 [4]": {"molecular_target": "T1, NRP-1 (Homo sapiens, UniProt O14786)", "T1 construct": "from tissue; host or cells: orthotopic PPC-1 prostate tumor xenografts grown in BALB/c athymic nude mice", "T1 sequence (O14786 22-923)": "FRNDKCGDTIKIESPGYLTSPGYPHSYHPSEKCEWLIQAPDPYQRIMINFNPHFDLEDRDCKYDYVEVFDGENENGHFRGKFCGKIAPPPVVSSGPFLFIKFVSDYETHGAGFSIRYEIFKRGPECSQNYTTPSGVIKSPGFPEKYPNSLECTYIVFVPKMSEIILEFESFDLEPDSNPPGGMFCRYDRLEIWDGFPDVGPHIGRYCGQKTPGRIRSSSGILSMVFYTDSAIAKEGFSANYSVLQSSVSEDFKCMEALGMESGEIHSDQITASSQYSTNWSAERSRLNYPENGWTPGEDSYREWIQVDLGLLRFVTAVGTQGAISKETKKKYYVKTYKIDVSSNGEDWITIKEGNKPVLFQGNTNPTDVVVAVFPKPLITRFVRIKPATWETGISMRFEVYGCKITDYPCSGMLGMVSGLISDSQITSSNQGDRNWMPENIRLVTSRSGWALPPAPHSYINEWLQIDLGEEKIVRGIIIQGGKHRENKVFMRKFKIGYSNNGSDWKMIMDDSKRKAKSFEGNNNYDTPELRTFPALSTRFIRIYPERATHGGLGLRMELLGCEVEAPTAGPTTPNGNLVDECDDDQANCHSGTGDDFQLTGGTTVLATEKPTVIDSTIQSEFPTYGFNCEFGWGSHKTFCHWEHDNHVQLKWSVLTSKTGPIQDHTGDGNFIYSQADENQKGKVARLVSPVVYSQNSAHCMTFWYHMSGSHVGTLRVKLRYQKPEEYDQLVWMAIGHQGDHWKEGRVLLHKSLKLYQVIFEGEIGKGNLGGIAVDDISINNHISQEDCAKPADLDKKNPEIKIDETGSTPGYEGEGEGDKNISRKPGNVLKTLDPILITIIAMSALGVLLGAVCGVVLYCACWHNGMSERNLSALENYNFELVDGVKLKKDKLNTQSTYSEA", "experiment": "Affinity chromatography of PPC-1 tumor extracts on immobilized RPARPAR peptide", "assay_type": "binding", "conditions": "PPC-1 tumor extract; confirmed by immunoblotting", "description": "PPC-1 tumors were lysed in PBS containing 200 mM n-octyl-beta-D-glucopyranoside, followed by incubation with RPARPAR (SEQ ID NO:2)-coated Sulfolink-beads (Pierce, Rockford, Ill.) and elution in lysis buffer containing 2 mM free RPARPAR (SEQ ID NO:2) peptide. Gel fragments excised from silver stained gel of eluted fractions were subjected to MALDI-TOF mass spectrometry at the Burnham Institute for Medical Research Proteomics Resource.\nOrthotopic PPC-1 tumors were homgenized in PBS containing 400 mM n-octyl-beta-D-glucopyranoside, 1 mM MgSO4, 1 mM MnCl2, 1 mM CaCl2) and 1 tablet/5 ml of EDTA-free protease inhibitors cocktail (Sigma, St. Louis, Mo.). After 6 hours of extraction on a rotating platform at 4° C., the lysate was cleared by centrifugation (20 minutes at 14,000 rpm in refrigerated microcentrifuge) and loaded to an affinity column prepared by coupling cysteine-tagged RPARPAR (SEQ ID NO:2) peptide to Sulfolink coupling gel according to the manufacturer's instructions (Pierce, Rockford, Ill.). After overnight binding, the column was washed with a column wash buffer containing 200 mM n-octyl-beta-D-glucopyranoside, but otherwise identical to the lysis buffer, followed by elution with 2 mM free RPARPAR (SEQ ID NO:2) peptide in the same buffer. […]"}, "NRP-1 [5]": {"tested_on": "NRP-1", "experiment": "RPARPAR binding and internalization in M21 melanoma cells with or without NRP-1 expression", "assay_type": "cell-based", "conditions": "M21 cells, which do not express NRP-1", "description": "as §1, with “For biopanning and phage binding studies (Hoffman, J. A. et al., 2004), cultured cells were grown to confluence and harvested with trypsin and mouse organs were dissociated using Medimachine (BD Biosciences, San Jose, Calif.). To” for “To”\n(§2) Expression construct of the wild type NRP-1 cDNA in pcDNA3.1(+) was a kind gift of Dr. Michael Klagsbrun. Site directed mutagenesis was used to generate triple mutation of the VEGF-165 binding site in the b1 domain of NRP-1 (S346A-E348A-349A) by replacing […] (SEQ ID NO:29; encoding amino acids SKET) with […] (SEQ ID NO:30; encoding AKAA).\n(§3) M21 melanoma cells were transiently transfected with these constructs using lipofectamine according to manufacturer's instructions (Invitrogen, Carlsbad, Calif.). Protease treatment of phage and qdots. […]"}, "NRP-1 [6]": {"molecular_target": "T2, NRP-1 (Homo sapiens, UniProt O14786, E348A/S346A/T349A)", "T2 construct": "expressed in transfected cells; host or cells: M21 melanoma cells, transient lipofectamine transfection", "T2 sequence (O14786 22-923 S346A/E348A/T349A)": "as the sequence (O14786 22-923) above, with S325A, E327A, T328A counted along it", "experiment": "RPARPAR binding and internalization in M21 melanoma cells with or without NRP-1 expression", "assay_type": "cell-based", "conditions": "triple mutation of VEGF-165 binding site in b1 domain", "description": "as §1, with “For biopanning and phage binding studies (Hoffman, J. A. et al., 2004), cultured cells were grown to confluence and harvested with trypsin and mouse organs were dissociated using Medimachine (BD Biosciences, San Jose, Calif.). To” for “To”\nas §2, §3"}, "orthotopic 22Rv1 tumors": {"tested_on": "orthotopic 22Rv1 tumors", "experiment": "22Rv1 xenograft treatment with DOX-liposomes", "assay_type": "in vivo, mice", "conditions": "daily i.v. 1 mg DOX/kg + 2 μmol/kg peptide, 17 days, tumor weight", "description": "(FIGS. 14A and 14B) Nude mice bearing orthotopic 22Rv1 human prostate tumors were intravenously injected with DOX-liposomes (3 mg DOX/kg) followed 5 min later by 100 nmol iRGD or PBS. Tumors and tissues were collected 3 hours later. In (FIG. 14A), the tumors were sectioned and stained with an anti-CD31 antibody. The doxorubicin is represented by the light specs that look like four halos in the left panel. Scale bars=200 μm, n=3. In (FIG. 14B), DOX in the tissues was quantified. […] The tumors were harvested and weighed after 17 days of treatment. The number of mice in each group was 5. One of 3 experiments that gave similar results is shown. (FIG. 14D) TUNEL staining was performed immunohistochemically on tissue sections of the tumor and heart samples from the treatment study, and quantified for positivity. Statistical analyses were performed with Student's r-test in (FIG. 14B), and ANOVA in (FIG. 14C) and (FIG. 14D); error bars, s.e.m.; n.s., not significant; single asterisk, p<0.05; double asterisk, p<0.01; triple asterisk, p<0.001.\nNude mice bearing 2 week-old orthotopic 22Rv1 tumors received daily intravenous injections of DOX-liposomes ([…]) or PBS, combined with 2 μmol/kg iRGD or PBS. The tumors were harvested and weighed after 17 days of treatment. The number of animals in each group was 13. […]"}, "live, unfixed cells": {"tested_on": "live, unfixed cells", "experiment": "Binding and uptake of peptide-functionalized quantum dots by cells", "assay_type": "cell-based", "conditions": "streptavidin qdots coated with biotinylated peptide", "description": "Biotinylated peptides were used to functionalize the 605ITK streptavidin qdots (Invitrogen, Carlsbad, Calif.) according to the manufacturer's instructions.\nStreptavidin ITK-605 quantum dots (Invitrogen, Carlsbad, Calif.) were functionalized with biotinylated peptides by incubation with 100 fold molar excess of peptide followed by removal of free peptide by dialysis."}},
  "note": "Where no end group is shown, it is not given here. [ ]: non-standard residue; d: D form.",
  "data": [
    {"substance": "ATWLPPR [A7R, reference compound]", "values": [
      {"measurement": "phage binding to and internalization into PPC1 cells", "setting": "[1]", "value": "bound to and were taken up by PPC-1 cells"}
    ]},
    {"substance": "C(CMe)RGDKGPDC", "values": [
      {"measurement": "stability against proteolysis", "setting": "[2]", "value": "stable against unwanted proteolysis"}
    ]},
    {"substance": "CDCRGDCFC [RGD-4C, reference compound]", "values": [
      {"measurement": "effect of trypsin treatment of phage on binding to PPC1 cells", "setting": "[1]", "value": "no effect"},
      {"measurement": "Evans Blue leakage/accumulation in tumor (vascular permeability effect)", "setting": "[3]", "value": "inactive"}
    ]},
    {"substance": "CR(NMe)GDKGPDC", "values": [
      {"measurement": "stability against proteolysis", "setting": "[2]", "value": "stable against unwanted proteolysis"}
    ]},
    {"substance": "CRGDC [non-internalizing, non-CendR RGD peptide, reference compound]", "values": [
      {"measurement": "effect of trypsin treatment of phage on binding to PPC1 cells", "setting": "[1]", "value": "no effect"}
    ]},
    {"substance": "RPARPAR [prototypic CendR peptide]", "values": [
      {"measurement": "protein eluted from immobilized peptide with free peptide", "setting": "NRP-1 [4]", "value": "130-kDa protein, identified by MALDI-TOF mass spectroscopy as NRP-1"},
      {"measurement": "binding and internalization by M21 melanoma cells", "setting": "NRP-1 [5]", "value": "do not bind nor internalize"},
      {"measurement": "binding by M21 cells transfected with NRP-1 binding pocket mutant", "setting": "NRP-1 [6]", "value": "did not confer"},
      {"measurement": "effect of inhibitors of cell internalization pathways on peptide-mediated internalization", "setting": "[1]; endocytosis inhibitors added 20 minutes before phage", "value": "None of the available inhibitors of the various cell internalization pathways inhibited internalization"},
      {"measurement": "effect of unlabeled peptide on binding and uptake of VEGF-C7, enhanced tuftsin or A7R phage by PPC-1 cells", "setting": "[1]; unlabeled peptide included in the binding buffer", "value": "both activities were reduced"}
    ]},
    {"substance": "RPARPARA", "values": [
      {"measurement": "phage binding to and internalization into PPC1 cells", "setting": "[1]", "value": "abolished cell binding and internalization"},
      {"measurement": "effect of trypsin treatment of phage on binding to PPC1 cells", "setting": "[1]", "value": "restored PPC-1 cell binding"}
    ]},
    {"substance": "TKPPR [enhanced tuftsin, reference compound]", "values": [
      {"measurement": "phage binding to and internalization into PPC1 cells", "setting": "[1]", "value": "bound to and were taken up by PPC-1 cells"}
    ]},
    {"substance": "cyclo(-RGDfK-)", "values": [
      {"measurement": "anti-tumor effect of DOX-liposomes 1 mg DOX/kg combined with peptide", "setting": "orthotopic 22Rv1 tumors", "value": "failed to enhance the effect of the drug"},
      {"measurement": "Evans Blue leakage/accumulation in tumor (vascular permeability effect)", "setting": "[3]", "value": "inactive"}
    ]},
    {"substance": "rparpar ([dR][dP][dA][dR][dP][dA][dR]; also: on quantum dots) [D-rparpar, RPARPAR peptide comprised of D-amino acids, on quantum dots]", "values": [
      {"measurement": "binding and uptake of peptide-functionalized quantum dots", "setting": "live, unfixed cells", "value": "greatly reduced ability to trigger uptake of quantum dots"}
    ]}
  ]
}
